≈ marks a conversion by molar mass, not a printed value. Read-outs that look alike come from different tables or passages of the source.
How the values were obtained:
γH2AX in Molt 4 cells = assay: Western blot of γH2AX (DNA damage biomarker); format: cell-based, human; conditions: 0, 0.0625, 0.125 and 0.25 μg/mL, 24 h
From the text: (§1) The ability of Topo II to generate DNA damage in the presence of Topo II-targeting agents led to the hypothesis that an important determinant of drug sensitivity was related to the overall level of Topo II[17]. […] Such findings encouraged us to evaluate the effect of the isolates on Topo II activity. In order to confirm whether the DNA damage-induced by the isolated sesterterpenoids involved the inhibition of Topo II activity, a cell-free DNA cleavage assay using an enzyme-mediated negatively supercoiled pHOT1 plasmid DNA was applied. […] These marine terpenoids suppressed Topo II activity, resulting in the inhibition of supercoiled DNA relaxation in a dose-dependent manner (Fig. 5A). […] To determine whether the apoptotic mechanism of these compounds affects γH2AX (as a biomarker of DNA damage) induction, Western blot analysis was employed to examine the activation of γH2AX.
Cell lysates were prepared by treating the cells for 30 min in RIPA lysis buffer, 1% Nonidet P-40, 0.5% sodium deoxycholate, 0.1% sodium dodecyl sulphate (SDS), 1 mM sodium orthovanadate, 100 μg/mL phenylmethylsulfonyl fluoride and 30 μg/mL aprotinin) (all chemicals were from Sigma)[38]. The lysates were centrifuged at 20,000 × g for 30 min, and the protein concentration in the supernatant was determined using a BCA protein assay kit (Pierce). Equal amounts of proteins were respectively separated by 7.5%, 10% or 12% of SDS-polyacrylamide gel electrophoresis and then were electrotransferred to a PVDF membrane. The membrane was blocked with a solution containing 5% non-fat dry milk TBST buffer (20 mM Tris-HCl, pH 7.4, 150 mM NaCl and 0.1% Tween 20) for 1 h and washed with TBST buffer. The protein expressions were monitored by immunoblotting using specific antibodies. These proteins were detected by an enhanced chemiluminescence kit (Pierce).

K562 cells = assay: MTT antiproliferative assay, leukemia K562 cells; conditions: Homo sapiens, K562, 72 h, read-out: IC50, cytotoxicity, Leukemia K562
From the text: (§2) Several cancer cell lines including leukemia K562, Molt 4, and HL 60 cells, prostate cancer LNCaP cells, colon cancer DLD-1 cells and breast cancer T-47D cells were used to evaluate the antiproliferative activity.
(§3) The cell lines were obtained from the American Type Culture Collection (ATCC, Manassas, VA, USA). […] Dimethyl sulfoxide (DMSO), 3-(4,5-dimethylthiazol-2-yl)-2,5-diphenyl-tetrazolium bromide (MTT) and all other chemicals were purchased from Sigma-Aldrich (St. Louis, MO, USA).

Molt 4 cells [1] = assay: MTT antiproliferative assay, leukemia Molt 4 cells; format: cell-based; conditions: Homo sapiens
Molt 4 cells [2] = assay: MMP disruption, JC-1 staining flow cytometry; format: cell-based, human; conditions: 0, 0.0625, 0.125 and 0.25 μg/mL, 24 h
Description: These assays were performed as described previously. […] In brief, the treated cells were labeled with a specific fluorescent dye for 30 min. After labeling, cells were washed with PBS and resuspended in PBS at a concentration of 1 × 10^6 cells/mL before analysis via flow cytometry.

T-47D cells = assay: MTT antiproliferative assay, breast cancer T-47D cells; conditions: Homo sapiens, T47D, 72 h, read-out: IC50, cytotoxicity, Breast T-47D
From the text: as §2, §3

LNCaP cells = assay: MTT antiproliferative assay, prostate cancer LNCaP cells; conditions: Homo sapiens, 72 h
From the text: as §2, §3

HL 60 cells = assay: MTT antiproliferative assay, leukemia HL 60 cells; conditions: Homo sapiens, HL-60, 72 h, read-out: IC50, cytotoxicity, Leukemia HL 60
From the text: as §2, §3

Sup-T1 cells = assay: MTT antiproliferative assay, lymphoma Sup-T1 cells; conditions: Homo sapiens, SUP-T1, 72 h, read-out: IC50, cytotoxicity, Lymphoma Sup-T1
U937 cells = assay: MTT antiproliferative assay, lymphoma U937 cells; conditions: Homo sapiens, U-937, 72 h, read-out: IC50, cytotoxicity, Lymphoma U937
Molt 4 cells [3] = assay: Annexin V/PI apoptosis assay; format: cell-based, human; conditions: 0, 0.0625, 0.125 and 0.25 μg/mL, 24 h, annexin-V/PI
Description: The externalization of phosphatidylserine (PS) and membrane integrity were quantified using an annexin V- FITC staining kit[72]. In brief, 10^6 cells were grown in 35 mm diameter plates and were labeled with annexin V-FITC (10 μg/mL) and PI (20 μg/mL) prior to harvesting. After labeling, all plates were washed with a binding buffer and harvested. Cells were resuspended in the binding buffer at a concentration of 2 × 10^5 cells/mL before analysis by flow cytometer FACS-Calibur (Becton-Dickinson, San Jose, CA, USA) and CellQuest software. Approximately 10,000 cells were counted for each determination.

human topoisomerase II = biological target: T1, human topoisomerase II (Homo sapiens, UniProt P11388); assay: Cell-free topoisomerase II DNA relaxation/cleavage assay with supercoiled pHOT1 plasmid DNA; format: biochemical; conditions: for inhibition at 0.08 µg/mL: 0.08 μg/mL; for inhibition at 0.08 µg/mL / inhibition at 0.312 µg/mL / inhibition at 1.25 µg/mL / inhibition at 5 µg/mL / inhibition at 20 µg/mL: compared with control supercoiled DNA; for inhibition at 0.312 µg/mL: 0.312 μg/mL; for inhibition at 1.25 µg/mL: 1.25 μg/mL; for inhibition at 5 µg/mL: 5 μg/mL; for inhibition at 20 µg/mL: 20 μg/mL
T1 construct: purchased Topogen
From the text: as §1
The assay was performed as described previously. […] Reactions were terminated by adding 2 μL of 10% SDS to facilitate trapping the enzyme in a cleavage complex, followed by the addition of 2.5 μL of proteinase K (50 μg/mL) to digest the bound protein (incubated at 37 °C for 15 min) and finally by adding 0.1 volume of the sample loading dye. The DNA products were analyzed via electrophoresis through vertical 2% agarose gels at 2 voltage/cm in 0.5 × TAE buffer. Gels were stained with ethidium bromide and photographed using an Eagle Eye II system (Stratagene, La Jolla, CA, USA). The quantitative analysis of the DNA Topo II activity was performed as described previously.

DLD-1 cells = assay: MTT antiproliferative assay, colon cancer DLD-1 cells; conditions: Homo sapiens, DLD-1, 72 h, read-out: IC50, cytotoxicity, Colon DLD-1
From the text: as §2, §3

Ca9-22 cells = assay: MTT antiproliferative assay, oral Ca9-22 cells; conditions: Homo sapiens, Ca9-22, 72 h, read-out: IC50, cytotoxicity, Oral Ca9-22
From the text: as §2, §3

Cal-27 cells = assay: MTT antiproliferative assay, oral Cal-27 cells; conditions: Homo sapiens, CAL-27, 72 h, read-out: IC50, cytotoxicity, Oral Cal-27
From the text: as §2, §3

[4] = test system: human Molt 4 tumor xenograft; assay: Human leukemia Molt 4 tumor xenograft animal model; format: in vivo, immunodeficient athymic mice
From the text: Compounds 1 and 2 induced apoptosis in several cancer cell lines; however, the amounts isolated were insufficient for further examination of their in vivo antitumor effect. On the other hand, the amount separated from 3 was sufficient to study the in vivo anti-tumor activity by evaluating its effect on tumor growth of human leukemia Molt 4 in xenograft animal model. Molt 4 (1 × 10^6) cells were inoculated subcutaneously at the right flank of female immunodeficient athymic mice. […] The average tumor size on day 33 in the control group was 404.63 mm^3, whereas the average tumor size in compound 3-treated group was 212.10 mm^3 (Fig. 6A).
Establishment of nude mice with xenografts was performed as described previously. Six-week-old […] immunodeficient athymic mice were purchased from the National Laboratory Animal and Research Center (Taipei, Taiwan). All of the animals were maintained under standard laboratory conditions (temperature 24–26 °C, 12–12 h dark-light circle) and fed with laboratory diet and water. This study was approved by the Animal Care and Treatment Committee of Kaohsiung Medical University (IACUC Permit Number 101136). All experiments were conducted in strict accordance with the recommendations in the Guide for the Care and Use of Laboratory Animals of the National Institutes of Health, and all efforts were made to minimize animal stress/distress. Molt 4 cells (1 × 10^6) resuspended in 0.2 mL PBS were injected s.c. into the right flank of each mouse, and tumor growth was monitored every day. Fourteen days after tumor cell injection, mice with confirmed tumor growth were randomly divided into two groups. Compound 3 (1.14 μg/g) was intraperitoneally administered to the treatment group, and the control group received solvent only. Compound 3 was administrated every other day for 33 days. Animals were sacrificed by carbon dioxide. Tumor size was measured three times a week using calipers and tumor volumes were calculated according to the standard formula: width^2 × length/2.

[5] = 72 h, read-out: IC50, cytotoxicity, Leukemia Molt 4
[6] = read-out: IC50, cytotoxicity, Prostate LNCaP (class symbol)

T1 sequence (P11388 whole entry): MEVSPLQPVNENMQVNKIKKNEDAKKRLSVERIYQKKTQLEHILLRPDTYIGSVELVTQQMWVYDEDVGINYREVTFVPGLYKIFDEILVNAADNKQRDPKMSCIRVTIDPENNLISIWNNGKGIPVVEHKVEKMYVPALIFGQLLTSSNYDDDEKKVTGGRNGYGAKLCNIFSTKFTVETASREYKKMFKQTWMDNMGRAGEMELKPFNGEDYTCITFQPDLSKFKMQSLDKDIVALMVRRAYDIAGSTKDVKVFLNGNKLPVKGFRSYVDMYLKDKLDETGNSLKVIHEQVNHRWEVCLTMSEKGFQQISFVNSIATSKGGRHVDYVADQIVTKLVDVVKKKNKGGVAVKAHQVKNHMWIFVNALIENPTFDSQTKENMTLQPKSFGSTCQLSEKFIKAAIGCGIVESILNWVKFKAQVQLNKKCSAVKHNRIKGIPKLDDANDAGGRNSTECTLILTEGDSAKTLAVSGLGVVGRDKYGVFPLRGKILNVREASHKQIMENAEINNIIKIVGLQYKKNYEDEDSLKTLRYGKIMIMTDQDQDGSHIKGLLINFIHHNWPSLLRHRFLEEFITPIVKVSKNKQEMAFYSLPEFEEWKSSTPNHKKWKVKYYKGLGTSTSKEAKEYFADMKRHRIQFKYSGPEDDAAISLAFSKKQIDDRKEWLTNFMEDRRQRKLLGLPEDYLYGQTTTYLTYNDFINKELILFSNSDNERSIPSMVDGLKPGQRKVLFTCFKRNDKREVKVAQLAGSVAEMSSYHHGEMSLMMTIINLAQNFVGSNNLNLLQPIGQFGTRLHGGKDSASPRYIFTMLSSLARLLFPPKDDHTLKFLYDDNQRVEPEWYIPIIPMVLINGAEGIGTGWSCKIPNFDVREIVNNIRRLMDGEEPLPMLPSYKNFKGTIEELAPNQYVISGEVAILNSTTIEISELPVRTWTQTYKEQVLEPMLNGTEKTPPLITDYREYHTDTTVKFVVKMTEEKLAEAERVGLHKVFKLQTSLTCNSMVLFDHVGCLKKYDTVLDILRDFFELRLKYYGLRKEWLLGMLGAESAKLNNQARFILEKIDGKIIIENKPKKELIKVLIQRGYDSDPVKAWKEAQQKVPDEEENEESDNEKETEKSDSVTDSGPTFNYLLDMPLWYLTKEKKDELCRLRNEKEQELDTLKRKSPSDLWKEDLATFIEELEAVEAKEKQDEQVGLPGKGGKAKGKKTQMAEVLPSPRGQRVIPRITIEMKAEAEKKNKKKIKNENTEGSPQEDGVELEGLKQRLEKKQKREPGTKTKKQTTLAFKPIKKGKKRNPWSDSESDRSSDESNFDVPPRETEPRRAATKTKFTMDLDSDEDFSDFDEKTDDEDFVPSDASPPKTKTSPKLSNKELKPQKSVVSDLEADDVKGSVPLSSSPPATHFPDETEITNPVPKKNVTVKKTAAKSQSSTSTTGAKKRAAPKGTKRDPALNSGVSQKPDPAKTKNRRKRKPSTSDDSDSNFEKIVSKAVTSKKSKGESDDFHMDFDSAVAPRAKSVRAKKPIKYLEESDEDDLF

inhibition at 0.08 µg/mL (human topoisomerase II) | inhibition at 0.312 µg/mL (human topoisomerase II) | inhibition at 1.25 µg/mL (human topoisomerase II) | inhibition at 5 µg/mL (human topoisomerase II) | inhibition at 20 µg/mL (human topoisomerase II) | Structure (SMILES) | expression of γH2AX (γH2AX in Molt 4 cells) | IC50 (K562 cells) | IC50 (Molt 4 cells [1]; [5]) | mitochondrial membrane potential (Molt 4 cells [2]) | IC50 (T-47D cells) | IC50 (LNCaP cells; [6]) | IC50 (HL 60 cells) | IC50 (Sup-T1 cells) | IC50 (U937 cells) | apoptotic population of Molt 4 cells (Molt 4 cells [3]) | IC50 (DLD-1 cells) | IC50 (Ca9-22 cells) | IC50 (Cal-27 cells) | also measured
12% | 23% | 36% | 90% | 99% | CC[C@@H](O)CC(=O)O[C@@H]1C[C@@H]2[C@@]3(C)CCC[C@](C)(CC)[C@@H]3CC[C@@]2(C)[C@@H]2CC=C(C(C)=O)[C@H](C=O)[C@@]12C (relative stereo) [Compound 2, 12β-(3′β-hydroxy-pentanoyloxy)-20,24-dimethyl-24-oxo-scalara-16-en-25-al] | significantly enhanced the expression of γH2AX in a dose-dependent manner | 0.35 µg/mL (≈ 0.68 µM) | 0.3 µg/mL | disruption in mitochondrial membrane potential | 1.87 µg/mL (≈ 3.63 µM) | > 20 µg/mL | 0.22 µg/mL (≈ 0.427 µM) | 0.42 µg/mL (≈ 0.816 µM) | 0.61 µg/mL (≈ 1.19 µM) | increase in the apoptotic population | 1.71 µg/mL (≈ 3.32 µM) | 1.48 µg/mL (≈ 2.88 µM) | 3.17 µg/mL (≈ 6.16 µM) | 
7% | 13% | 28% | 90% | 98% | CC(C)=CCC/C(C)=C/CC/C(C)=C/CC/C(C)=C/CC1=CC(=O)C=CC1=O [Compound 3, 2-tetraprenil-1,4-benzochinone] | activation of DNA damage was not observed | 0.7 µg/mL (≈ 1.84 µM) | 0.34 µg/mL | disruption in mitochondrial membrane potential | 1.06 µg/mL (≈ 2.79 µM) | > 20 µg/mL | 0.42 µg/mL (≈ 1.1 µM) | 0.33 µg/mL (≈ 0.867 µM) | 0.65 µg/mL (≈ 1.71 µM) | increase in the apoptotic population | 15.4 µg/mL (≈ 40.5 µM) | 0.97 µg/mL (≈ 2.55 µM) | 0.51 µg/mL (≈ 1.34 µM) | mice body weights versus control group ([4]; 1.14 μg/g intraperitoneal, 33 days): no significant difference; average tumor size on day 33 ([4]; 1.14 μg/g intraperitoneal, every other day, 33 days): 212.10 mm^3; suppression of the volume of xenograft tumor growth compared with the control ([4]; Molt 4 xenograft): 47.58%; IC50 (human topoisomerase II; cell-free system, read-out: IC50, inhibition of topo II activities (converted)): 1.13 µM
 |  |  |  |  | C=CCNC1=C2C[C@@H](C)C[C@H](OC)[C@H](O)[C@@H](C)/C=C(\C)[C@H](OC(N)=O)[C@@H](OC)/C=C\C=C(/C)C(=O)NC(=CC1=O)C2=O [Compound 17-AAG, 17-allylamine-17-demethoxygeldanamycin, reference compound] |  |  |  |  |  |  |  |  |  |  |  |  |  | IC50 (Molt 4 cells [1]; 24 h, molar value in brackets, read-out: IC50, suppression in cell growth, Molt 4): 7.2 µM; IC50 (Molt 4 cells [1]; 24 h, read-out: IC50, suppression in cell growth, Molt 4): 4.2 µg/mL
 |  |  |  |  | COc1cccc2c1C(=O)c1c(O)c3c(c(O)c1C2=O)C[C@@](O)(C(=O)CO)C[C@@H]3O[C@H]1C[C@H](N)[C@H](O)[C@H](C)O1 [Doxorubicin, reference compound] |  | 0.2 µg/mL (≈ 0.368 µM) | 0.01 µg/mL |  | 0.08 µg/mL (≈ 0.147 µM) |  | 0.02 µg/mL (≈ 0.0368 µM) | 0.02 µg/mL (≈ 0.0368 µM) | 0.21 µg/mL (≈ 0.386 µM) |  | 1.28 µg/mL (≈ 2.35 µM) | 0.05 µg/mL (≈ 0.092 µM) | 0.01 µg/mL (≈ 0.0184 µM) | IC50 (LNCaP cells; read-out: IC50, cytotoxicity, Prostate LNCaP): 2.47 µg/mL (≈ 4.54 µM)
 |  |  |  |  | COc1cc([C@@H]2c3cc4c(cc3[C@@H](O[C@@H]3O[C@@H]5CO[C@@H](C)O[C@H]5[C@H](O)[C@H]3O)[C@H]3COC(=O)[C@H]23)OCO4)cc(OC)c1O [etoposide, reference compound] |  |  |  |  |  |  |  |  |  |  |  |  |  | DNA product with topo II poison (human topoisomerase II; 500 μM, positive control, Lane 16): linear DNA strand was observed
